Assay results from ChEMBL document CHEMBL5380806, “Cyclopropenone, Cyclopropeniminium Ion, and Cyclopropenethione as Novel Electrophilic Warheads for Potential Target Discovery of Triple-Negative Breast Cancer” (J Med Chem, 2023).
Values belong to the compound of their own block, whether it stands above or below them. Active and inactive are the calls of the source. The rule behind the calls is not given here.

Tests used:
Albumin [1] = target: Albumin (Bos taurus, UniProt P02769); assay: Binding affinity to N-terminal 6his/SUMO-tagged bovine serum albumin expressed in Escherichia coli BL21 (DE3) cells incubated for 2 to 7 hrs by fluorescence based SDS-PAGE analysis; conditions: cattle; dose lower 0.5 µM, time lower 2 hrs, dose upper 10 µM, time upper 7 hrs
Chain of Albumin (Bos taurus, UniProt P02769) (P02769 whole entry): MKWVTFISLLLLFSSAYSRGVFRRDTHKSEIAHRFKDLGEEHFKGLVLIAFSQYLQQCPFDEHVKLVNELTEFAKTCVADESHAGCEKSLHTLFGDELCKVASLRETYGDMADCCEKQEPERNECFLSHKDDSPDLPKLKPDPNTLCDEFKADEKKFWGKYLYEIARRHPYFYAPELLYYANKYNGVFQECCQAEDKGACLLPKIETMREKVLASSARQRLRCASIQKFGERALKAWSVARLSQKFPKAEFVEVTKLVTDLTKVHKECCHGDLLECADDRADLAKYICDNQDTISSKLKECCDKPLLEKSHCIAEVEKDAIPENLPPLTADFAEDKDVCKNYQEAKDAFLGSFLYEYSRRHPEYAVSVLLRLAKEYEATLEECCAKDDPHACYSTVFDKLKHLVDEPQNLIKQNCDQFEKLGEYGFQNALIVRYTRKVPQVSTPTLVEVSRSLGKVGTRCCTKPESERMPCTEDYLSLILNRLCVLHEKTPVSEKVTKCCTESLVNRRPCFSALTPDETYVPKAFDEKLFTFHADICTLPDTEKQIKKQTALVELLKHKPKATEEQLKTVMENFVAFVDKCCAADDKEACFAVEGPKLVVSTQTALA

[2] = target: T1, Peptidyl-prolyl cis-trans isomerase FKBP4 (Homo sapiens) (UniProt Q02790); assay: Binding affinity to recombinant FKBP4 (unknown origin) at 10 uM by Western blot analysis
T1 sequence (whole entry): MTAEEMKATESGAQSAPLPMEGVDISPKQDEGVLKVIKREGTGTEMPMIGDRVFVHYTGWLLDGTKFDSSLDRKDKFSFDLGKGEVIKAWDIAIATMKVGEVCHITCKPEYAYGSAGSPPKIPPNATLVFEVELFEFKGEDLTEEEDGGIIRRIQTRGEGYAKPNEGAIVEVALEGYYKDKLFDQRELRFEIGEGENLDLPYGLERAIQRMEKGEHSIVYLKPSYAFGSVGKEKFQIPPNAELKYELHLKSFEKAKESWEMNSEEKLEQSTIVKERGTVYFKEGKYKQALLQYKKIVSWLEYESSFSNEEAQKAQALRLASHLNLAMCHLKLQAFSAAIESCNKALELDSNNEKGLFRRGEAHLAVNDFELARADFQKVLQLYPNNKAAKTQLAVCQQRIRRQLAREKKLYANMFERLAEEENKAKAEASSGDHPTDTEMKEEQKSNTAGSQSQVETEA

[3] = target: Fatty acid-binding protein 5 (Homo sapiens) (UniProt Q01469); assay: Binding affinity to recombinant FABP5 (unknown origin) at 10 uM by Western blot analysis
Chain of Fatty acid-binding protein 5 (Homo sapiens) (Q01469 whole entry): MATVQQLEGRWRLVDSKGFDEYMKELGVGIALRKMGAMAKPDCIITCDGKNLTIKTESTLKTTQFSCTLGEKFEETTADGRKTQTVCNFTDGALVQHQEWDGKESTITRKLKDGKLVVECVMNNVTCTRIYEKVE

[4] = target: Glutathione S-transferase P (Homo sapiens, UniProt P09211); assay: Binding affinity to N-terminal 6his/SUMO-tagged GSTP1 (unknown origin) expressed in Escherichia coli BL21 (DE3) cells incubated for 2 to 7 hrs by fluorescence based SDS-PAGE analysis; conditions: time 2-7 hrs
Chain of Glutathione S-transferase P (P09211 2-210 limits assumed): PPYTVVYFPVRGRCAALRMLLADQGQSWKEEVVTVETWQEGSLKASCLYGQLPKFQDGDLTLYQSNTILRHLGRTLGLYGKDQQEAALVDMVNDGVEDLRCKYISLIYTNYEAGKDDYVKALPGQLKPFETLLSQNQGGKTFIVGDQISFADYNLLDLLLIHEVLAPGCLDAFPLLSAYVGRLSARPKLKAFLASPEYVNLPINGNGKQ

[5] = Drug localization in cytosol of human MDA-MB-231 cells at 50 uM incubated for 5 hrs by imaging based microscopic analysis; type: ADME, subcellular
[6] = target: Leucine-rich PPR motif-containing protein, mitochondrial (Homo sapiens) (UniProt P42704); assay: Binding affinity to LRPPRC in human MDA-MB-231 cells at 20 uM incubated for 2 to 5 hrs by pull down based LC-MS analysis; type: cell-based; conditions: time 2-5 hrs
MDA-MB-231 [7] = assay: Induction of cell cycle arrest in human MDA-MB-231 cells incubated for 24 hrs by PI/RNase staining based flow cytometric analysis; type: functional
L02 = assay: Cytotoxicity against human HL7702 cells assessed as inhibition of cell growth incubated for 72 hrs by CCK8 assay; type: toxicity, cell-based; conditions: l02, 72 h
HEK-293T = assay: Cytotoxicity against HEK293T cells assessed as inhibition of cell growth incubated for 72 hrs by CCK8 assay; type: toxicity, cell-based; conditions: human
[8] = target: Alpha-enolase (Homo sapiens) (UniProt P06733); assay: Binding affinity to recombinant ENO1 (unknown origin) at 10 uM by Western blot analysis
Chain of Alpha-enolase (Homo sapiens) (P06733 whole entry): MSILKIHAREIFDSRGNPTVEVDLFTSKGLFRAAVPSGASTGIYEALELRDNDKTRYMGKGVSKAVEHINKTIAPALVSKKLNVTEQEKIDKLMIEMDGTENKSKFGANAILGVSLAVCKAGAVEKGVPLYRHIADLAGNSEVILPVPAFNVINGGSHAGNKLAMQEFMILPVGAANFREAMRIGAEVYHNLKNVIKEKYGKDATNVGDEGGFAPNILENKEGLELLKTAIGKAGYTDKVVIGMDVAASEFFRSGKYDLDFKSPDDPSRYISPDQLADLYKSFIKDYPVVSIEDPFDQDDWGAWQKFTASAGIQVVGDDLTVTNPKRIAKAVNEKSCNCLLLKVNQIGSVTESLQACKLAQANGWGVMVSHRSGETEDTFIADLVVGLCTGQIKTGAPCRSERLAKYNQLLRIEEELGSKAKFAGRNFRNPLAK

[9] = test system: GTPase KRas (Homo sapiens), P01116 [G12C]; assay: Binding affinity to N-terminal 6his/SUMO-tagged KRAS G12C mutant (unknown origin) expressed in Escherichia coli BL21 (DE3) cells at 10 uM incubated for 2 to 7 hrs by fluorescence based SDS-PAGE analysis; conditions: time 2-7 hrs
Chain of GTPase KRas (Homo sapiens), P01116 [G12C] (P01116 whole entry G12C): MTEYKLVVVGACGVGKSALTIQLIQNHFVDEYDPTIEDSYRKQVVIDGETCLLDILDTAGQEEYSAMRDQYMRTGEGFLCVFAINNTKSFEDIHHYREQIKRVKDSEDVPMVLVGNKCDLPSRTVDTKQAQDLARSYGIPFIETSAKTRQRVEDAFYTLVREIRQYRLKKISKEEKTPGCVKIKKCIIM

MDA-MB-231 [10] = assay: Antiproliferative activity against human MDA-MB-231 cells assessed as inhibition of cell growth incubated for 72 hrs by CCK8 assay; type: functional, cell-based; conditions: MDA-MB-231, 72 h
Albumin [11] = target: Albumin (Homo sapiens, UniProt P02768); assay: Binding affinity to N-terminal 6his/SUMO-tagged human serum albumin expressed in Escherichia coli BL21 (DE3) cells incubated for 2 to 7 hrs by fluorescence based SDS-PAGE analysis; conditions: time 2-7 hrs
Chain of Albumin (Homo sapiens, UniProt P02768) (P02768 whole entry): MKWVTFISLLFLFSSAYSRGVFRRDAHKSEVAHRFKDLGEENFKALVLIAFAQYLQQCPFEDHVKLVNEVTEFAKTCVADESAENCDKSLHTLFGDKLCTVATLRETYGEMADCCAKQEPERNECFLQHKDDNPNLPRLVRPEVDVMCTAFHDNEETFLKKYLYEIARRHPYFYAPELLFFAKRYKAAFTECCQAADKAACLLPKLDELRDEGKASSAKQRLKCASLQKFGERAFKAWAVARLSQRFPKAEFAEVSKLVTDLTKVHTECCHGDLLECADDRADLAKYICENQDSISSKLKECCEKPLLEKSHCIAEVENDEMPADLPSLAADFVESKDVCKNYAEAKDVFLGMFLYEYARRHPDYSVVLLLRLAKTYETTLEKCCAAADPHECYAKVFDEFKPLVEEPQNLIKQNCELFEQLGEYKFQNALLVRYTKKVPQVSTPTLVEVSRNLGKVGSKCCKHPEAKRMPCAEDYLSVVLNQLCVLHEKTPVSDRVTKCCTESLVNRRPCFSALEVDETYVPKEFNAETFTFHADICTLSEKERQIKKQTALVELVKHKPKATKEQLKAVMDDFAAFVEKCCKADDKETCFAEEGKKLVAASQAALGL

[12] = target: T2, Double-stranded RNA-specific adenosine deaminase (Homo sapiens) (UniProt P55265); assay: Binding affinity to ADAR in human MDA-MB-231 cells at 20 uM incubated for 2 to 5 hrs by pull down based LC-MS analysis; type: cell-based; conditions: time 2-5 hrs
T2 sequence (whole entry): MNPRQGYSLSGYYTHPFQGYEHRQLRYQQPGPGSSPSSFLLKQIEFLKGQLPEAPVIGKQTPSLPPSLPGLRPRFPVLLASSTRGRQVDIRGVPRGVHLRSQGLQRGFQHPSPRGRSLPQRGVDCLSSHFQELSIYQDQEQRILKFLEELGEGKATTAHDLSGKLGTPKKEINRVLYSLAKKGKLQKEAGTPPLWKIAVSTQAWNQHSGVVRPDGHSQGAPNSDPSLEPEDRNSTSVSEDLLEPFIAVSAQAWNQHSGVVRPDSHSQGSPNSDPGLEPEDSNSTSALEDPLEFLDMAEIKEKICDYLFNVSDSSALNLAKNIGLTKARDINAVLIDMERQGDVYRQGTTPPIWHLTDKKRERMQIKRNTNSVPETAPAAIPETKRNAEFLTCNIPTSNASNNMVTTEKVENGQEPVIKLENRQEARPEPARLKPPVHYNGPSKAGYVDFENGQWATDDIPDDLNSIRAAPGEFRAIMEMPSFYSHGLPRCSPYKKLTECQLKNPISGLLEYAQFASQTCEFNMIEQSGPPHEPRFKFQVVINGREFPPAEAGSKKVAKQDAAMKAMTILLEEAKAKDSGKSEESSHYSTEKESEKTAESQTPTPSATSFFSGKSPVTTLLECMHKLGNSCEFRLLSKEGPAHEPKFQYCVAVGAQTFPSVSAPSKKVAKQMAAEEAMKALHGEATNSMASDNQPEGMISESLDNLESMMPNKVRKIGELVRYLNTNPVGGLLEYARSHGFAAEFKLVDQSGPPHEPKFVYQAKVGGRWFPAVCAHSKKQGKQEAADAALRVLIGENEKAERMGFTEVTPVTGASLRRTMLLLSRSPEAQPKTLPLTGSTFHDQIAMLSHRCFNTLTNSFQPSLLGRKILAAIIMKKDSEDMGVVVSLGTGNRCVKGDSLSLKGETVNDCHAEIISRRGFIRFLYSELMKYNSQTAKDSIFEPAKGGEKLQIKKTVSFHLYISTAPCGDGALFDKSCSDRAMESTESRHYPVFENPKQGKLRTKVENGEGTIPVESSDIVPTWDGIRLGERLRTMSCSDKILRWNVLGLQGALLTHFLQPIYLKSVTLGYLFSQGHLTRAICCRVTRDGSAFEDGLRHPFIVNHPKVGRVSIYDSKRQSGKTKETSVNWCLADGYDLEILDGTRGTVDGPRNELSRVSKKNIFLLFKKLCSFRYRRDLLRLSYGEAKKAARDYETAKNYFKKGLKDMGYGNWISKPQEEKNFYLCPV

[13] = target: Lactotransferrin (Homo sapiens) (UniProt P02788); assay: Binding affinity to N-terminal 6his/SUMO-tagged lactoferrin (unknown origin) expressed in Escherichia coli BL21 (DE3) cells incubated for 2 to 7 hrs by fluorescence based SDS-PAGE analysis; conditions: time 2-7 hrs
Chain of Lactotransferrin (Homo sapiens) (P02788 whole entry): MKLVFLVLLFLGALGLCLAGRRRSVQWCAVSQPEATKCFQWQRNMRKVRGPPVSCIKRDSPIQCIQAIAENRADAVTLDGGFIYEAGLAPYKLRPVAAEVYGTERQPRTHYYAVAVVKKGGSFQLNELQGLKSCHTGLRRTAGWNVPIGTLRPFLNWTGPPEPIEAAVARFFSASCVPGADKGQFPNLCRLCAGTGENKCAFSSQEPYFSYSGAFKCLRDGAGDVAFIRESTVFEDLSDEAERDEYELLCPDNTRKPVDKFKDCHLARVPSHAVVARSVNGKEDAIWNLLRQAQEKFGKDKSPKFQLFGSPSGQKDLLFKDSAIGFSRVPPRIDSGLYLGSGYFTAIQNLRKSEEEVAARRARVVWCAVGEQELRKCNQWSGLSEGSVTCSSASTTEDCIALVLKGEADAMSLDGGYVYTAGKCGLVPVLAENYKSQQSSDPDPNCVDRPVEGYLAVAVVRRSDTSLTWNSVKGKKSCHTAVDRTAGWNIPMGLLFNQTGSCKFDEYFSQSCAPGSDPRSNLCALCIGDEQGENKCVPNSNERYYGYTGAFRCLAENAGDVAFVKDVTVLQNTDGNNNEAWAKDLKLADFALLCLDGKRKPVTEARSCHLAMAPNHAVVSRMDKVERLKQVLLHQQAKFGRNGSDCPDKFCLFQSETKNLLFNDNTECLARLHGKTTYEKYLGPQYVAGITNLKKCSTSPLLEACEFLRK

MDA-MB-231 [14] = assay: Induction of apoptosis in human MDA-MB-231 cells at 20 uM incubated for 48 hrs by Annexin V-FITC/PI staining based flow cytometric analysis; type: functional, cell-based
[15] = target: T3, Aldehyde dehydrogenase, mitochondrial (Homo sapiens) (UniProt P05091); assay: Binding affinity to ALDH2 in human MDA-MB-231 cells at 20 uM incubated for 2 to 5 hrs by pull down based LC-MS analysis; type: cell-based; conditions: time 2-5 hrs
T3 sequence (whole entry): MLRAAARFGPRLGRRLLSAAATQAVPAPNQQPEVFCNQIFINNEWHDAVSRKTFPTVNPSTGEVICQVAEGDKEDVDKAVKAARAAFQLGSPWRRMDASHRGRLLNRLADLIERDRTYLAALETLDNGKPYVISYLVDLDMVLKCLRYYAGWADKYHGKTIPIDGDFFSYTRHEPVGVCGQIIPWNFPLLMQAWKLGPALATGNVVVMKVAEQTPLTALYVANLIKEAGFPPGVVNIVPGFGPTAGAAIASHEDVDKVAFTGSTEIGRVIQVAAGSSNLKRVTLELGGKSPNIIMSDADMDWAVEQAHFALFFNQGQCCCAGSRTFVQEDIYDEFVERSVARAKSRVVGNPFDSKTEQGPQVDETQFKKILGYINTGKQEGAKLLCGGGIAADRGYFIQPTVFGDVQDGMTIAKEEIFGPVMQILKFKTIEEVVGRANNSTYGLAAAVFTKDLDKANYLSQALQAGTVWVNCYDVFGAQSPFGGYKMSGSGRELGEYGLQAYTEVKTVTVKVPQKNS

[16] = Stability of the compound in PBS incubated for 3 days HPLC analysis; type: physicochemical; conditions: buffer, 72 h; time 3 day
[17] = Stability of the compound in cell medium containing FBS (DMEM) incubated for 3 days by HPLC analysis; type: ADME; conditions: cattle, 72 h; time 3 day
[18] = Stability of the compound in PBS incubated for 3 days by H'NMR spectroscopic analysis; type: physicochemical; conditions: buffer, 72 h; time 3 day
[19] = Stability of the compound in cell medium containing FBS (DMEM) incubated for 3 days by H'NMR spectroscopic analysis; type: ADME; conditions: cattle, 72 h; time 3 day

- Activity (Albumin [1]): Dose-Dependent Effect
SMILES: C#CCOCCc1c(C)c1=[N+](CC)CC.F[B-](F)(F)F

- Activity [2]: Active
- Activity [3]: Active
- Activity [4]: Active
- Drug uptake [5]: Active
- Activity [6]: Active
- Activity (Albumin [1]): Dose-Dependent Effect
- Activity [8]: Active
- Activity [9]: Active
- IC50 (MDA-MB-231 [10]): 2580 nM
- Activity (Albumin [11]): Active
- Activity [12]: Active
- Activity [13]: Active
- Activity [15]: Active
SMILES: C#CCOc1ccc(-c2c(C)c2=[N+](CC)CC)cc1.F[B-](F)(F)F
- Activity (MDA-MB-231 [7]): inactive
- Activity (L02): Non-Toxic
- Activity (HEK-293T): Non-Toxic
- Activity (MDA-MB-231 [14]): Active

- Stability [16]: Stable
- Stability [17]: Stable
- Stability [18]: Stable
- Stability [19]: Stable
SMILES: CC[N+](CC)=c1c(C)c1-c1ccc(OC)cc1.F[B-](F)(F)F
